From US9937194B1, “Compounds and methods for treating inflammatory diseases” (priority 2009, dated 2018)
In brackets after ≈: the same amount, converted by molar mass.

Experiments:
HDAC activity = assay: H2O2-induced reduction of HDAC activity in PMA-differentiated U937 cells; format: cell-based, human; settings: for restoration of H2O2-reduced HDAC activity (%): test concentration not given, bracketed second value not explained
Method: In cell HDAC assay. Cells are incubated with Fluor de Lys™ substrate for 1 hr before lyses. Total HDAC activity from whole cell extracts is measured using the HDAC Fluorimetric Assay/Drug Discovery Kit (BIOMOL® International, Inc., Plymouth Meeting, Pa.).
HDAC expression: In cell HDAC activity assay: U937 is differentiated to macrophage type cells by PMA for 3 days. HDAC fluorescent substrate (Biomol) is added before exposure of oxidative stress (H2O2, 200 μM) or Tobacco smoke conditioned medium for 4 hrs. HDAC activity is measured (Biomol kit). Compounds at different concentrations are treated 20 min before oxidative stress treatment.
PMA-differentiated macrophage-like cells are pretreated with compounds described herein for 20 min. After H2O2 (200 μM) stimulation for 4 hrs, HDAC activity is assayed. Data are expressed as fold changes against positive control treated with H2O2 only. Values represent means of four experiments±SEM.

IL-8 = assay: LPS-induced IL-8 release in PMA-differentiated U937 cells (ELISA); format: cell-based, human; settings: for IL-8 inhibition (%): test concentration not given
Method: (§1) Cytokine ELISA. LPS-induced IL-8, TNFα concentrations and TNFα-induced IL-8 concentrations are determined by sandwich ELISA according to the manufacturer's instructions (R&D Systems Europe). IC50 values for dexamethasone on IL-8 production are calculated using the computer program Prism 4.0 (GraphPad Software Inc., San Diego, Calif.) as a marker for steroid sensitivity.
(§2) Effects of compounds on LPS-induced IL-8 and TNFα release in PMA-differentiated U937 cells. PMA-differentiated macrophage-like cells are pretreated with compounds described herein for 1 hr, followed by LPS (100 ng/ml) stimulation for 4 hrs. LPS-induced IL-8 and TNFα release is evaluated by ELISA. Values represent means of three experiments±SEM.

TNFα = assay: LPS-induced TNFα release in PMA-differentiated U937 cells (ELISA); format: cell-based, human; settings: for TNFα inhibition (%): test concentration not given
Method: as §1, §2

MMP9 = assay: PMA-induced MMP9 expression in U937 cells (gelatin zymography); format: cell-based, human; settings: test concentration not given; bracketed second value not explained
Method: Zymography. MMP9 enzyme activity is measured by gelatin zymography. 5 μl of supernatants were diluted with 5 μl Laemli sample buffer (Bio-Rad) and are loaded on a Novex® 10% Zymogram (Gelatin) gel (Invitrogen). After electrophoresis (90 min, 125 V, 35 mA, 5 W) gels are incubated with 1× Novex® zymogram renaturing buffer (Invitrogen) for 30 min at room temperature with gentle agitation. Gels are then rinsed in 1× Novex® zymogram developing buffer (Invitrogen) for 30 min at room temperature with gentle agitation prior to overnight incubation in the developing buffer at 37° C. After incubation the gels are stained using the colloidal blue staining kit (Invitrogen) with buffer containing 20% methanol and 70% distilled water to visualize the zymogen bands. Relevant band intensities are quantified by densitometric analysis using the UVP GelDoc-It system.
Effects of compounds on PMA-induced MMP9 expression in U937 cells. U937 cells are pretreated with compounds described herein for 1 hr, followed by PMA (50 ng/ml) treatment for 48 hrs. After 48 hrs supernatants are collected for zymography. MMP9 enzyme activity is measured by gelatin zymography. Data are expressed as fold changes against positive control treated with PMA only. Values represent means of three experiments±SEM.

[1] = format: cell-based; settings: test concentration not given
Method: The human monocytic cell line U937 and the human type II alveolar epithelial carcinoma cell line A549 were obtained from the American Type Culture Collection (ATCC, Rockville, Md.). PBMCs from COPD patients were obtained in Brompton hospital and separated by AccuSPIN (Sigma-Aldrich, Poole, UK). Cells were cultured in complete growth medium (Sigma-Aldrich) (RPMI 1640 for U937, PBMCs, and Dulbecco's modified essential medium (DMEM) for A549) supplemented with 10% fetal bovine serum (FBS) and 1% L-glutamine at 37° C. in a humidified atmosphere with 5% CO2. U937 were differentiated into an adherent macrophage-like morphology by exposure to PMA (50 or 100 ng/ml) for 48 hrs in complete growth medium. Cell viability was assessed microscopically by trypan blue staining. Cell toxicity was determined by MTT assay as needed. This study was approved by the ethics committee of the Royal Brompton Hospitals, and all subjects gave written informed consent.

H. influenzae ATCC 49247 = assay: MIC; format: cell-based
K. pneumonia 13883 = assay: MIC; format: cell-based; settings: in µg/mL
E. coli ATCC 25922 = assay: MIC; format: cell-based; settings: in µg/mL
[2] = system: S. typhimurium ATCC 14028; assay: MIC; format: cell-based; settings: in µg/mL
S. pneumoniae ATCC 49619 = assay: MIC; format: cell-based
[3] = system: S. aureus ATCC 29213 (MSSA) MLS-S; assay: MIC; format: cell-based
S. aureus MRSA 33591 = assay: MIC; format: cell-based
S. pyogenes ATCC 19615 = assay: MIC; format: cell-based; settings: in µg/mL
P. aeruginosa ATCC 27853 = assay: MIC; format: cell-based
[4] = system: N. gonorrhoeae ATCC 49226; assay: MIC; format: cell-based; parameters: unit not given beside the values
E. faecium ATCC 19434 = assay: MIC; format: cell-based
Akt = assay: H2O2-induced phosphorylation of Akt in PMA-differentiated U937 cells (western blot); format: cell-based, human; settings: PMA-differentiated U937; H2O2 1 mM 30 min
Method: Cell Lysis and Western Blotting. Whole cell protein extracts are prepared using modified RIPA buffer (50 mM Tris HCL pH 7.4, 0.5% NP-40, 0.25% Na-deoxycholate, 150 mM NaCl with freshly added complete protease (Roche). Phosphatase inhibitor (Active Motif) is also added when required. Protein concentration is determined using the Bio-Rad Protein Assay (Bio-Rad). Proteins are separated by SDS-PAGE under denaturing conditions, and electrotransferred to a nitrocellulose membrane (Amersham Biosciences, Amersham, U.K.) (Western blotting). The membranes are blocked in TBS containing 0.05% Tween 20 and 5% non-fat dried milk, and then incubated with anti-pAkt or Akt antibody followed by an horse radish peroxidase-conjugated secondary antibody (Dako UK Ltd., Ely, UK). Bound antibodies are visualized by ECL Plus (GE Healthcare UK Ltd., Little Chalfont, UK). The band density is calculated by densitometry (UVP Bioimaging Systems, Cambridge, UK) using Labworks software (Ultra-Violet Products, Cambridge, UK).
Effects of compounds on H2O2-induced phosphorylation of Akt in PMA-differentiated U937 cells. PMA-differentiated macrophage-like cells are pretreated with compounds described herein for 20 min. After H2O2 (1 mM) stimulation for 30 min, cells are lysed. Phosphorylation levels of Akt are measured by western blot. Data are calculated relative to total protein, and expressed as fold changes against positive control treated with H2O2 only. Values represent means of three or four experiments±SEM.

Compound	restoration of H2O2-reduced HDAC activity (%) (HDAC activity)	IL-8 inhibition (%) (IL-8)	TNFα inhibition (%) (TNFα)	MMP9 inhibition (%) (MMP9)	Cell Toxicity (% cell death) [1]	MIC H. influenzae ATCC 49247 (H. influenzae ATCC 49247)	MIC K. pneumonia 13883 (K. pneumonia 13883)	MIC E. coli ATCC 25922 (E. coli ATCC 25922)	MIC S. typhimurium ATCC 14028 [2]	MIC S. pneumoniae ATCC 49619 (S. pneumoniae ATCC 49619)	MIC S. aureus ATCC 29213 (MSSA) MLS-S [3]	MIC S. aureus MRSA 33591 (S. aureus MRSA 33591)	MIC S. pyogenes ATCC 19615 (S. pyogenes ATCC 19615)	MIC P. aeruginosa ATCC 27853 (P. aeruginosa ATCC 27853)	MIC N. gonorrhoeae ATCC 49226 [4]	MIC E. faecium ATCC 19434 (E. faecium ATCC 19434)	also measured
CCC1OC(=O)C(C)C(OC2CC(C)(OC)C(OC(C)=O)C(C)O2)C(C)C(OC2OC(C)CC(N(C)C)C2O)C(C)(OC)CC(C)C(=O)C(C)C2N(CCCCn3cc(CN(C)C)nn3)C(=O)OC12C (centres unmarked) [Example 24]	85%	60%	6%	11%	−3%	64 µg/mL (≈ 64.3 µM)	–	–	–	–	–	–	–	–	–	–	–
CCC1OC(=O)C(C)C(OC2CC(C)(OC)C(OC(C)=O)C(C)O2)C(C)C(OC2OC(C)CC(N(C)C)C2O)C(C)(OC)CC(C)C(=O)C(C)C2N(CCCCn3cc(CO)nn3)C(=O)OC12C (centres unmarked) [Example 25]	72 (63) %	26%	15%	10%	−8%	4 µg/mL (≈ 4.13 µM)	–	–	–	–	–	–	–	–	–	–	–
CC[C@H]1OC(=O)[C@H](C)C(=O)[C@H](C)[C@@H](O[C@@H]2O[C@H](C)C[C@H](N(C)C)[C@H]2O)[C@@](C)(OC)C[C@@H](C)CN(C(=O)CCCn2cc(-c3ccc(Br)cc3)nn2)[C@H](C)[C@@H](O)[C@]1(C)O [Example 41]	14%	54%	45%	39 (41) %	8%	> 64 µg/mL	>64	>64	>64	32 µg/mL (≈ 36.3 µM)	64 µg/mL (≈ 72.7 µM)	> 64 µg/mL	64	> 64 µg/mL	64	64 µg/mL (≈ 72.7 µM)	–
CCC1OC(=O)C(C)C(OC2CC(C)(OC)C(O)C(C)O2)C(C)C(OC2OC(C)CC(N(C)C)C2O)C(C)(O)CC(C)CN(C)C(C)C2OC(=O)OC12C (centres unmarked) [Example 42]	104 (79) %	−27%	8%	−2%	−8%	4 µg/mL (≈ 5.16 µM)	8-32	8-32	8-16	≤ 0.125 µg/mL	1 µg/mL (≈ 1.29 µM)	> 64 µg/mL	≤0.125	> 64 µg/mL	≤0.125	8 µg/mL (≈ 10.3 µM)	–
CC[C@H]1OC(=O)[C@H](C)C(=O)[C@H](C)[C@@H](O[C@@H]2O[C@H](C)C[C@H](N(C)C)[C@H]2O)[C@](C)(OC)C[C@@H](C)C(=O)[C@H](C)[C@H]2N(CCCCn3cnc(-c4cccnc4)c3)C(=O)O[C@]12C [TEL, telithromycin, reference compound]	–	–	–	–	–	–	–	–	–	–	–	–	–	–	–	–	restoration of HDAC activity compared with Example 33 (HDAC activity; PMA-differentiated U937, H2O2 200 μM 4 hrs): only at much higher doses than Example 33; HDAC activity reached compared with untreated controls (HDAC activity; PMA-differentiated U937, H2O2 200 μM, comparators at highest doses tested): only restore HDAC activity to levels comparable to untreated controls; inhibition of Akt phosphorylation compared with Example 33 (Akt): only at much higher concentrations than Example 33; inhibition of LPS-induced IL-8 release compared with Example 33 (IL-8; LPS 100 ng/ml 4 hrs): did not show any inhibition at any concentration tested; IC50 (TNFα; Homo sapiens, U-937, LPS-induced TNFα release, PMA-differentiated U937, NA = inactive): 231 ± 37 µM; inhibition of LPS-induced TNFα release compared with Example 33 (TNFα; LPS 100 ng/ml 4 hrs): at higher concentrations than Example 33
